{
  "source": "patent US20250009819A1",
  "about": "“NOVEL PROBIOTICS AND USE THEREOF” (PBLBIOLAB CO., LTD., priority 2021, published 2025)",
  "key": {"[1]": {"test_system": "animals with LPS-induced cognitive impairment", "experiment": "Animals with LPS-induced cognitive impairment: improvement effect in spleen", "assay_type": "in vivo, C57BL/6 male mice", "conditions": "LPS-treated mice, 1×10^9 CFU/mouse or sulfasalazine 50 mg/kg once a day for 5 days", "method": "(§1) Hippocampus, colon, and spleen tissues were homogenized by adding 1 ml of RIPA buffer (Gibco) containing protease inhibitor cocktail and centrifuged at 4° C., 13000 rpm for 15 min to obtain supernatant. Indicators of this supernatant were measured using an ELISA kit (Ebioscience).\nmRNA was isolated from spleen tissue using the RNA Isolation Kit: RNeasy Mini Kit (QIAGEN), converted to cDNA, and qPCR was performed to measure the expression rates of Tbet, Foxp3, and glyceraldehyde 3-phosphate dehydrogenase (GAPDH). The reaction product was first treated at 95° C. for 30 seconds, followed by 38 cycles of 5 seconds at 95° C. and 30 seconds at 72° C. for analysis.\n(§2) C57BL/6 male mice (5 weeks old, 19-21 g) were divided (6 mice in each group) and acclimatized to the laboratory for 1 week. To induce intestinal and brain diseases, mice were intraperitoneally administered Escherichia coli-derived LPS (10 μg/kg) once daily for 5 days. […] Experimental animals in the normal group were orally administered with a physiological saline solution, which was used to suspend lactic acid bacteria. The day following the conclusion of sample administration, the experimental animals were sacrificed, and samples from the brain hippocampus, colon, and spleen were collected. In the Hippocampus, inflammatory indicators, such as IFN-γ, TNF-α, and IL-10, were measured using ELISA. In the colon, intestinal length and inflammatory indicators, such as IFN-γ, TNF-α, and IL-10, were measured. In the spleen, Th1 cells and Treg cells were measured by FACS (Fluorescence-Activated Cell Sorting)."}, "[2]": {"test_system": "animals with LPS-induced cognitive impairment", "experiment": "Animals with LPS-induced cognitive impairment: cognitive improvement, hippocampus indicators", "assay_type": "in vivo, C57BL/6 male mice", "conditions": "LPS-treated mice, 1×10^9 CFU/mouse or sulfasalazine 50 mg/kg once a day for 5 days", "method": "as §1\nThe Y-shaped maze measurement device is shaped like an alphabetical Y with three arms extending from it, each arm being 25 cm long, 14 cm high, 5 cm wide, and positioned at the same angle. At the end of one arm of the Y-shaped maze, the animal was placed with its head facing out and allowed to freely navigate the arm for 8 minutes. The animal's movements were recorded, and reported as arm entries when the animal entered the arm with its hind paw, and the animal's movement was represented by an alternation, which was defined as one alternation when the animal passed through the three arms in succession. The amount of spontaneous alternation behavior was expressed as a percentage between the actual number of alternations and the maximum possible number of alternations (i.e., the total number of […] minus 2).\nThe experiment was conducted in a box (40×40×40 cm) made so that the outside could not be seen from the inside. Two objects (A, A′) of the same shape and size were fixedly disposed in a box and the mouse was relocated to start from the center of the box. Then, the number of times the mouse made contact with the two objects was recorded for 10 minutes. After 24 hours, one of the two objects was replaced with a new object (A, B). Then, one original object and one new object were prepared, and the animal's exploration time was measured.\nas §2"}, "[3]": {"test_system": "animals with LPS-induced cognitive impairment", "experiment": "Animals with LPS-induced cognitive impairment: colitis improvement (colon)", "assay_type": "in vivo, C57BL/6 male mice", "conditions": "LPS-treated mice, 1×10^9 CFU/mouse or sulfasalazine 50 mg/kg once a day for 5 days", "method": "To 100 mg of colon tissue, 200 μl of 10 mM potassium phosphate buffer (pH 7.0) containing 0.5% hexadecyl trimethyl ammonium bromide was added and homogenized. Then, the supernatant was obtained by centrifugation for 10 minutes at 4° C. and 10,000 g. A volume of 50 μl of the supernatant was added to 0.95 mk of reaction solution (containing 1.6 mM tetramethyl benzidine and 0.1 mM H2O2), reacted at 37° C., and absorbance was monitored over time at 650 nm.\nas §1, §2"}, "Clostridium difficile": {"test_system": "Clostridium difficile", "experiment": "Clostridium difficile proliferation in gut microbiota (PCR)", "assay_type": "cell-based", "conditions": "human feces culture; lactic acid bacteria 1×10^6 CFU/mL; anaerobic 24 hr", "summary_of_the_method": "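Human fecal supernatant, diluted 10,000-fold in GAM, co-cultured anaerobically 24 h with lactic acid bacteria (1×10^6 CFU/mL). C. difficile quantified by PCR on pellet DNA (95 °C 30 s; 42 cycles 95 °C 5 s/72 °C 30 s); supernatant LPS measured by ELISA.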"}, "BDNF": {"test_system": "BDNF", "experiment": "BDNF expression in SH-SY5Y cells", "assay_type": "cell-based", "conditions": "LPS 200 ng/ml; lactic acid bacteria 1×10^4 CFU/ml; 24 h", "method": "(§3) SH-SY5Y cells obtained from the Korean Cell Line Bank were cultured in DMEM medium supplemented with 10% FBS and 1% antibiotics, and dispensed at 2×10^6 cells per well in a 12-well plate. Then, LPS (200 ng/ml) was added to each well along with lactic acid bacteria (1×10^4 CFU/ml) and incubated for 24 h. The cells and supernatants were collected, sonicated and centrifuged, and the amount of BDNF in the supernatant was measured by ELISA kit."}, "IL-10": {"test_system": "IL-10", "experiment": "IL-10 expression in LPS-treated macrophages (ELISA)", "assay_type": "cell-based, C57BL/6 mice", "conditions": "macrophages treated with lactic acid bacteria and LPS for 24 hours", "summary_of_the_method": "(§4)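 Peritoneal macrophages were elicited in male C57BL/6 mice (6 weeks) by i.p. 4% thioglycolate and harvested 96 h later. Cells at 0.5×10^6/well were treated with lactic acid bacteria plus LPS for 24 h. Cytokines in the supernatant were quantified by ELISA.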"}, "TNF-α": {"test_system": "TNF-α", "experiment": "TNF-α expression in LPS-treated macrophages (ELISA)", "assay_type": "cell-based, C57BL/6 mice", "conditions": "macrophages treated with lactic acid bacteria and LPS for 24 hours", "summary_of_the_method": "as §4"}, "[4]": {"experiment": "Antioxidant activity (DPPH, in vitro)", "assay_type": "biochemical", "conditions": "DPPH 0.2 mM; lactic acid bacteria suspension 1×10^8 CFU/ml; 37° C. 20 min", "summary_of_the_method": "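Lactic acid bacteria suspension (1×10^8 CFU/ml) or vitamin C (1 g/ml) was mixed with 0.2 mM ethanolic DPPH and incubated 20 min at 37° C. After centrifugation, supernatant absorbance at 517 nm gave the antioxidant activity.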"}, "gut microbiota": {"test_system": "gut microbiota", "experiment": "LPS production in gut microbiota (ELISA)", "assay_type": "cell-based", "conditions": "human feces culture; lactic acid bacteria 1×10^6 CFU/mL; anaerobic 24 hr", "method": "Fresh human feces were suspended in anaerobic medium (GAM, Nissui Pharmaceutical Co., Ltd., Japan) and allowed to stand for 10 min. The supernatant was diluted with 10,000-fold anaerobic medium, 0.05 mL of the dilution was transplanted into 5 mL of freshly made anaerobic medium, and lactic acid bacteria (1×10^6 CFU/mL) were implanted and incubated anaerobically for 24 hr."}, "Neuropeptide Y (NPY)": {"test_system": "Neuropeptide Y (NPY)", "experiment": "Neuropeptide Y (NPY) expression in PC12 phaeochromocytoma cells", "assay_type": "cell-based", "conditions": "LPS 200 ng/ml; lactic acid bacteria 1×10^4 CFU/ml; 24 hr", "method": "as §3, with “PC12” for “SH-SY5Y”, “1×10^6” for “2×10^6”, “hr.” for “h.”, “NPY” for “BDNF”"}},
  "data": [
    {"compound": "O=C(O)c1cc(/N=N/c2ccc(S(=O)(=O)Nc3ccccn3)cc2)ccc1O", "note": "[Sulfasalazine, sulfasalazine, reference compound]", "values": [
      {"measurement": "Tbet/Foxp3", "setting": "[1]; spleen qPCR", "result": 1.78},
      {"measurement": "IL-10", "setting": "[1]; spleen", "result": 9.78, "unit": "pg/mg"},
      {"measurement": "Interferon (IFN)-γ", "setting": "[1]; spleen", "result": 13.55, "unit": "pg/mg"},
      {"measurement": "NK cell cytoxicity (%)", "setting": "[1]; spleen", "result": 7.92, "unit": "%"},
      {"measurement": "Phagocytosis (%)", "setting": "[1]; spleen", "result": 39.59, "unit": "%"},
      {"measurement": "TNF-α", "setting": "[1]; spleen", "result": 4.51, "unit": "pg/mg"},
      {"measurement": "TNF-α/IL-10", "setting": "[1]; spleen", "result": 0.13},
      {"measurement": "Exoporation (%) (in NOR task)", "setting": "[2]", "result": 72.02, "unit": "%"},
      {"measurement": "Spontaneous alteration (%) (in Y-maze task)", "setting": "[2]", "result": 69.21, "unit": "%"},
      {"measurement": "IFN-γ/IL-10", "setting": "[2]; hippocampus", "result": 0.60},
      {"measurement": "IL-10", "setting": "[2]; hippocampus", "result": 45.79, "unit": "pg/mg"},
      {"measurement": "Interferon (IFN)-γ", "setting": "[2]; hippocampus", "result": 27.35, "unit": "pg/mg"},
      {"measurement": "TNF-α", "setting": "[2]; hippocampus", "result": 10.98, "unit": "pg/mg"},
      {"measurement": "TNF-α/IL-10", "setting": "[2]; hippocampus", "result": 0.24},
      {"measurement": "Colon (cm)", "setting": "[3]", "result": 5.0, "unit": "cm"},
      {"measurement": "IFN-γ/IL-10", "setting": "[3]", "result": 2.85},
      {"measurement": "IL-10", "setting": "[3]", "result": 15.91, "unit": "pg/mg"},
      {"measurement": "Interferon (IFN)-γ", "setting": "[3]", "result": 45.4, "unit": "pg/mg"},
      {"measurement": "MPO activity", "setting": "[3]", "result": 4.75, "unit": "μUnit/mg"},
      {"measurement": "TNF-α", "setting": "[3]", "result": 20.1, "unit": "pg/mg"},
      {"measurement": "TNF-α/IL-10", "setting": "[3]", "result": 1.26}
    ]},
    {"compound": "Lactococcus lactis NK208", "values": [
      {"measurement": "Gut microbiota Inhibition of difficile bacteria proliferation", "setting": "Clostridium difficile", "result": "+ (weakly (+; >20-60%))"},
      {"measurement": "SHSY5Y cell Induction of BDNF expression", "setting": "BDNF", "result": "+ (weakly (+; >20-60%))"},
      {"measurement": "Macrophage Induction of IL-10 expression", "setting": "IL-10", "result": "− (not or less than 20% (−; <20%))"},
      {"measurement": "Macrophage Inhibition of TNF-α expression", "setting": "TNF-α", "result": "− (not or less than 20% (−; <20%))"},
      {"measurement": "Antioxidant activity", "setting": "[4]", "result": "− (not or less than 20% (−; <20%))"},
      {"measurement": "Gut microbiota Inhibition of LPS production", "setting": "gut microbiota", "result": "+ (weakly (+; >20-60%))"},
      {"measurement": "PC12 cell Induction of NPY expression", "setting": "Neuropeptide Y (NPY)", "result": "+ (weakly (+; >20-60%))"}
    ]}
  ]
}
